Experimental data as given in ChEMBL document CHEMBL2417537, “Synthesis and antifungal activity of terpenyl-1,4-naphthoquinone and 1,4-anthracenedione derivatives” (Eur J Med Chem, 2013).
Converted amounts (≈) assume the structure as drawn. The source made the active and inactive calls. The calls are words filed in the database; no cut-off is given here.

Tests used:
Candida tropicalis [1] = assay: Antifungal activity against Candida tropicalis CECT 11901 after 24 hrs; details: CECT 11901, 24 h
Vero = assay: Cytotoxicity against african green monkey Vero cells after 48 hrs by MTT assay; format: cell-based; details: Chlorocebus sabaeus
Fusarium oxysporum = assay: Antifungal activity against Fusarium oxysporum ATCC 48112 after 48 hrs; format: functional; details: ATCC 48112, 48 h
Clavispora lusitaniae = assay: Antifungal activity against Candida lusitaniae ATCC 200951 after 24 hrs; format: functional; details: ATCC 200951, 24 h
[2] = tested on: Trichophyton mentagrophytes; assay: Antifungal activity against Trichophyton mentagrophytes ATCC 24198 after 6 days; format: functional; details: ATCC 24198, 144 h
Aspergillus fumigatus = assay: Antifungal activity against Aspergillus fumigatus ATCC 204305 after 48 hrs; format: functional; details: ATCC 204305, 48 h
Candida tropicalis [3] = assay: Antifungal activity against Candida tropicalis ATCC 200956 after 24 hrs; format: functional; details: ATCC 200956, 24 h
Pichia kudriavzevii = assay: Antifungal activity against Candida krusei ATCC 6258 after 24 hrs; format: functional; details: ATCC 6258, 24 h
Candida albicans [4] = assay: Antifungal activity against Candida albicans ATCC 90028 after 24 hrs; format: functional; details: ATCC 90028, 24 h
Aspergillus terreus = assay: Antifungal activity against Aspergillus terreus CDC 317 after 48 hrs; format: functional; details: CDC 317, 48 h
Aspergillus niger = assay: Antifungal activity against Aspergillus niger ATCC 16404 after 48 hrs; format: functional; details: ATCC 16404, 48 h
Candida albicans [5] = assay: Antifungal activity against Candida albicans ATCC 10231 after 24 hrs; format: functional; details: ATCC 10231, 24 h
Candida parapsilosis [6] = assay: Antifungal activity against Candida parapsilosis ATCC 22019 after 24 hrs; format: functional; details: ATCC 22019, 24 h
Trichophyton rubrum = assay: Antifungal activity against Trichophyton rubrum ATCC 28188 after 6 days; format: functional; details: ATCC 28188, 144 h
[7] = Selectivity index, ratio of IC50 for african green monkey Vero cells to IC50 for Trichophyton mentagrophytes ATCC 24198; format: toxicity, cell-based; details: read-out: Ratio IC50
Candida parapsilosis [8] = assay: Antifungal activity against Candida parapsilosis ATCC 22019 at > MIC up to 24 hrs by time kill study; format: functional, organism-based
Candida parapsilosis [9] = assay: Antifungal activity against Candida parapsilosis ATCC 22019 at 0.5 MIC up to 24 hrs by time kill study; format: functional, organism-based
Aspergillus flavus = assay: Antifungal activity against Aspergillus flavus ATCC 204304 after 48 hrs; format: functional; details: ATCC 204304, 48 h
[10] = Selectivity index, ratio of IC50 for african green monkey Vero cells to IC50 for Aspergillus fumigatus ATCC 204305; format: toxicity, cell-based; details: read-out: Ratio IC50
[11] = Selectivity index, ratio of IC50 for african green monkey Vero cells to IC50 for Candida krusei ATCC 6258; format: toxicity, cell-based; details: read-out: Ratio IC50
[12] = Selectivity index, ratio of IC50 for african green monkey Vero cells to IC50 for Candida lusitaniae ATCC 200951; format: toxicity, cell-based; details: read-out: Ratio IC50
[13] = Selectivity index, ratio of IC50 for african green monkey Vero cells to IC50 for Trichophyton rubrum ATCC 28188; format: toxicity, cell-based; details: read-out: Ratio IC50

SMILES: CC1(C)CCCc2cc3c(cc21)C(=O)C=C(Cl)C3=O
- MIC90 (Candida tropicalis [1]): 12.7 µg/mL (≈ 46.2 µM)
- IC50 (Vero): 109 µg/mL (≈ 397 µM)
- MIC90 (Fusarium oxysporum): 16 µg/mL (≈ 58.2 µM)
- MIC90 (Clavispora lusitaniae): 5 µg/mL (≈ 18.2 µM)
- MIC90 [2]: 3.2 µg/mL (≈ 11.6 µM)
- MIC90 (Aspergillus fumigatus): 16 µg/mL (≈ 58.2 µM)
- MIC90 (Candida tropicalis [3]): 8 µg/mL (≈ 29.1 µM)
- MIC90 (Pichia kudriavzevii): 2 µg/mL (≈ 7.28 µM)
- MIC90 (Candida albicans [4]): 16 µg/mL (≈ 58.2 µM)
- MIC90 (Aspergillus terreus): > 32 µg/mL
- MIC90 (Aspergillus niger): > 32 µg/mL
- MIC90 (Candida albicans [5]): 20.2 µg/mL (≈ 73.5 µM)
- MIC90 (Candida parapsilosis [6]): 4 µg/mL (≈ 14.6 µM)
- MIC90 (Trichophyton rubrum): 5 µg/mL (≈ 18.2 µM)
- selectivity ratio [7]: > 7.8
- Activity (Candida parapsilosis [8]): Active
- Activity (Candida parapsilosis [9]): inactive
- MIC90 (Aspergillus flavus): > 32 µg/mL
- selectivity ratio [10]: > 1.6
- selectivity ratio [11]: > 12.5

SMILES: COc1ccc(SC2=CC(=O)c3ccc(CCCC(C)C)cc3C2=O)cc1
- MIC90 (Candida tropicalis [1]): > 32 µg/mL
- MIC90 (Fusarium oxysporum): > 32 µg/mL
- MIC90 (Clavispora lusitaniae): > 32 µg/mL
- MIC90 [2]: > 32 µg/mL
- MIC90 (Aspergillus fumigatus): > 32 µg/mL
- MIC90 (Candida tropicalis [3]): > 32 µg/mL
- MIC90 (Pichia kudriavzevii): > 32 µg/mL
- MIC90 (Candida albicans [4]): > 32 µg/mL
- MIC90 (Aspergillus terreus): > 32 µg/mL
- MIC90 (Aspergillus niger): > 32 µg/mL
- MIC90 (Candida albicans [5]): > 32 µg/mL
- MIC90 (Candida parapsilosis [6]): > 32 µg/mL
- MIC90 (Trichophyton rubrum): > 32 µg/mL
- MIC90 (Aspergillus flavus): > 32 µg/mL

SMILES: CC(C)CCCc1ccc2c(c1)C(=O)C(Cl)=C(Cl)C2=O
- MIC90 (Candida tropicalis [1]): > 32 µg/mL
- IC50 (Vero): ≥ 200 µg/mL
- MIC90 (Fusarium oxysporum): > 32 µg/mL
- MIC90 (Clavispora lusitaniae): 20.2 µg/mL (≈ 64.9 µM)
- MIC90 [2]: 4 µg/mL (≈ 12.9 µM)
- MIC90 (Aspergillus fumigatus): 8 µg/mL (≈ 25.7 µM)
- selectivity ratio [12]: > 9.9
- MIC90 (Candida tropicalis [3]): > 32 µg/mL
- MIC90 (Pichia kudriavzevii): > 32 µg/mL
- MIC90 (Candida albicans [4]): > 32 µg/mL
- MIC90 (Aspergillus terreus): > 32 µg/mL
- MIC90 (Aspergillus niger): > 32 µg/mL
- MIC90 (Candida albicans [5]): > 32 µg/mL
- MIC90 (Candida parapsilosis [6]): > 32 µg/mL
- MIC90 (Trichophyton rubrum): 4 µg/mL (≈ 12.9 µM)
- selectivity ratio [13]: > 50
- selectivity ratio [7]: > 50
- MIC90 (Aspergillus flavus): > 32 µg/mL
- selectivity ratio [10]: > 25

SMILES: Cc1c2c(nc3ccccc13)C(=O)c1cc(CCCC(C)C)ccc1C2=O
- MIC90 (Candida tropicalis [1]): > 32 µg/mL
- IC50 (Vero): 115 µg/mL (≈ 322 µM)
- MIC90 (Fusarium oxysporum): > 32 µg/mL
- MIC90 (Clavispora lusitaniae): > 32 µg/mL
- MIC90 [2]: > 32 µg/mL
- MIC90 (Aspergillus fumigatus): > 32 µg/mL
- MIC90 (Candida tropicalis [3]): > 32 µg/mL
- MIC90 (Pichia kudriavzevii): > 32 µg/mL
- MIC90 (Candida albicans [4]): > 32 µg/mL
- MIC90 (Aspergillus terreus): > 32 µg/mL
- MIC90 (Aspergillus niger): > 32 µg/mL
- MIC90 (Candida albicans [5]): > 32 µg/mL
- MIC90 (Candida parapsilosis [6]): > 32 µg/mL
- MIC90 (Trichophyton rubrum): > 32 µg/mL
- MIC90 (Aspergillus flavus): > 32 µg/mL

SMILES: Cc1ccc2[nH]c3c(c2c1)C(=O)c1ccc(CCCC(C)C)cc1C3=O
- MIC90 (Candida tropicalis [1]): > 32 µg/mL
- IC50 (Vero): 55.2 µg/mL (≈ 160 µM)
- MIC90 (Fusarium oxysporum): > 32 µg/mL
- MIC90 (Clavispora lusitaniae): > 32 µg/mL
- MIC90 [2]: > 32 µg/mL
- MIC90 (Aspergillus fumigatus): > 32 µg/mL
- MIC90 (Candida tropicalis [3]): > 32 µg/mL
- MIC90 (Pichia kudriavzevii): > 32 µg/mL
- MIC90 (Candida albicans [4]): > 32 µg/mL
- MIC90 (Aspergillus terreus): > 32 µg/mL
- MIC90 (Aspergillus niger): > 32 µg/mL
- MIC90 (Candida albicans [5]): > 32 µg/mL
- MIC90 (Candida parapsilosis [6]): > 32 µg/mL
- MIC90 (Trichophyton rubrum): > 32 µg/mL
- MIC90 (Aspergillus flavus): > 32 µg/mL

SMILES: Cc1cc(C)c2c3c(oc2c1)C(=O)c1cc(CCCC(C)C)ccc1C3=O
- MIC90 (Candida tropicalis [1]): > 32 µg/mL
- IC50 (Vero): 35.4 µg/mL (≈ 98.2 µM)
- MIC90 (Fusarium oxysporum): > 32 µg/mL
- MIC90 (Clavispora lusitaniae): > 32 µg/mL
- MIC90 [2]: > 32 µg/mL
- MIC90 (Aspergillus fumigatus): > 32 µg/mL
- MIC90 (Candida tropicalis [3]): > 32 µg/mL
- MIC90 (Pichia kudriavzevii): > 32 µg/mL
- MIC90 (Candida albicans [4]): > 32 µg/mL
- MIC90 (Aspergillus terreus): > 32 µg/mL
- MIC90 (Aspergillus niger): > 32 µg/mL
- MIC90 (Candida albicans [5]): > 32 µg/mL
- MIC90 (Candida parapsilosis [6]): > 32 µg/mL
- MIC90 (Trichophyton rubrum): > 32 µg/mL
- MIC90 (Aspergillus flavus): > 32 µg/mL

SMILES: CC(C)=CCCc1ccc2c(c1)C(=O)C=CC2=O
- MIC90 (Candida tropicalis [1]): > 32 µg/mL
- IC50 (Vero): 109 µg/mL (≈ 454 µM)
- MIC90 (Fusarium oxysporum): > 32 µg/mL
- MIC90 (Clavispora lusitaniae): > 32 µg/mL
- MIC90 [2]: > 32 µg/mL
- MIC90 (Aspergillus fumigatus): > 32 µg/mL
- MIC90 (Candida tropicalis [3]): > 32 µg/mL
- MIC90 (Pichia kudriavzevii): > 32 µg/mL
- MIC90 (Candida albicans [4]): > 32 µg/mL
- MIC90 (Aspergillus terreus): > 32 µg/mL
- MIC90 (Aspergillus niger): > 32 µg/mL
- MIC90 (Candida albicans [5]): > 32 µg/mL
- MIC90 (Candida parapsilosis [6]): > 32 µg/mL
- MIC90 (Trichophyton rubrum): > 32 µg/mL
- MIC90 (Aspergillus flavus): > 32 µg/mL

SMILES: CC(C)=CCCc1ccc2c(c1)C(=O)C(Cl)=C(NCc1ccccc1)C2=O
- MIC90 (Candida tropicalis [1]): > 32 µg/mL
- IC50 (Vero): 55.9 µg/mL (≈ 147 µM)
- MIC90 (Fusarium oxysporum): > 32 µg/mL
- MIC90 (Clavispora lusitaniae): > 32 µg/mL
- MIC90 [2]: > 32 µg/mL
- MIC90 (Aspergillus fumigatus): > 32 µg/mL
- MIC90 (Candida tropicalis [3]): > 32 µg/mL
- MIC90 (Pichia kudriavzevii): > 32 µg/mL
- MIC90 (Candida albicans [4]): > 32 µg/mL
- MIC90 (Aspergillus terreus): > 32 µg/mL
- MIC90 (Aspergillus niger): > 32 µg/mL
- MIC90 (Candida albicans [5]): > 32 µg/mL
- MIC90 (Candida parapsilosis [6]): > 32 µg/mL
- MIC90 (Trichophyton rubrum): 22.6 µg/mL (≈ 59.5 µM)
- MIC90 (Aspergillus flavus): > 32 µg/mL

SMILES: COc1cc(NC2=C(Cl)C(=O)c3cc4c(cc3C2=O)C(C)(C)CCC4)cc(OC)c1OC
- MIC90 (Candida tropicalis [1]): > 32 µg/mL
- IC50 (Vero): ≤ 25 µg/mL
- MIC90 (Fusarium oxysporum): > 32 µg/mL
- MIC90 (Clavispora lusitaniae): > 32 µg/mL
- MIC90 [2]: > 32 µg/mL
- MIC90 (Aspergillus fumigatus): > 32 µg/mL
- MIC90 (Candida tropicalis [3]): > 32 µg/mL
- MIC90 (Pichia kudriavzevii): > 32 µg/mL
- MIC90 (Candida albicans [4]): > 32 µg/mL
- MIC90 (Aspergillus terreus): > 32 µg/mL
- MIC90 (Aspergillus niger): > 32 µg/mL
- MIC90 (Candida albicans [5]): > 32 µg/mL
- MIC90 (Candida parapsilosis [6]): > 32 µg/mL
- MIC90 (Trichophyton rubrum): > 32 µg/mL
- MIC90 (Aspergillus flavus): > 32 µg/mL

SMILES: CC(C)=CCCc1ccc2c(c1)C(=O)C(Cl)=CC2=O
- MIC90 (Candida tropicalis [1]): > 32 µg/mL
- IC50 (Vero): 26.1 µg/mL (≈ 95 µM)
- MIC90 (Fusarium oxysporum): 32 µg/mL (≈ 116 µM)
- MIC90 (Clavispora lusitaniae): 3.2 µg/mL (≈ 11.6 µM)
- MIC90 [2]: 6.4 µg/mL (≈ 23.3 µM)
- MIC90 (Aspergillus fumigatus): 11.3 µg/mL (≈ 41.1 µM)
- MIC90 (Candida tropicalis [3]): 11.3 µg/mL (≈ 41.1 µM)
- MIC90 (Pichia kudriavzevii): 2.4 µg/mL (≈ 8.74 µM)
- MIC90 (Candida albicans [4]): > 32 µg/mL
- MIC90 (Aspergillus terreus): > 32 µg/mL
- MIC90 (Aspergillus niger): > 32 µg/mL
- MIC90 (Candida albicans [5]): > 32 µg/mL
- MIC90 (Candida parapsilosis [6]): 4 µg/mL (≈ 14.6 µM)
- MIC90 (Trichophyton rubrum): 4 µg/mL (≈ 14.6 µM)
- selectivity ratio [13]: 6.5
- MIC90 (Aspergillus flavus): > 32 µg/mL
- selectivity ratio [10]: 1.4
- selectivity ratio [11]: 10.9
